Biological target: T1, Solute carrier family 12 member 5 (Homo sapiens, UniProt Q9H2X9)
T1 sequence (Q9H2X9 whole entry): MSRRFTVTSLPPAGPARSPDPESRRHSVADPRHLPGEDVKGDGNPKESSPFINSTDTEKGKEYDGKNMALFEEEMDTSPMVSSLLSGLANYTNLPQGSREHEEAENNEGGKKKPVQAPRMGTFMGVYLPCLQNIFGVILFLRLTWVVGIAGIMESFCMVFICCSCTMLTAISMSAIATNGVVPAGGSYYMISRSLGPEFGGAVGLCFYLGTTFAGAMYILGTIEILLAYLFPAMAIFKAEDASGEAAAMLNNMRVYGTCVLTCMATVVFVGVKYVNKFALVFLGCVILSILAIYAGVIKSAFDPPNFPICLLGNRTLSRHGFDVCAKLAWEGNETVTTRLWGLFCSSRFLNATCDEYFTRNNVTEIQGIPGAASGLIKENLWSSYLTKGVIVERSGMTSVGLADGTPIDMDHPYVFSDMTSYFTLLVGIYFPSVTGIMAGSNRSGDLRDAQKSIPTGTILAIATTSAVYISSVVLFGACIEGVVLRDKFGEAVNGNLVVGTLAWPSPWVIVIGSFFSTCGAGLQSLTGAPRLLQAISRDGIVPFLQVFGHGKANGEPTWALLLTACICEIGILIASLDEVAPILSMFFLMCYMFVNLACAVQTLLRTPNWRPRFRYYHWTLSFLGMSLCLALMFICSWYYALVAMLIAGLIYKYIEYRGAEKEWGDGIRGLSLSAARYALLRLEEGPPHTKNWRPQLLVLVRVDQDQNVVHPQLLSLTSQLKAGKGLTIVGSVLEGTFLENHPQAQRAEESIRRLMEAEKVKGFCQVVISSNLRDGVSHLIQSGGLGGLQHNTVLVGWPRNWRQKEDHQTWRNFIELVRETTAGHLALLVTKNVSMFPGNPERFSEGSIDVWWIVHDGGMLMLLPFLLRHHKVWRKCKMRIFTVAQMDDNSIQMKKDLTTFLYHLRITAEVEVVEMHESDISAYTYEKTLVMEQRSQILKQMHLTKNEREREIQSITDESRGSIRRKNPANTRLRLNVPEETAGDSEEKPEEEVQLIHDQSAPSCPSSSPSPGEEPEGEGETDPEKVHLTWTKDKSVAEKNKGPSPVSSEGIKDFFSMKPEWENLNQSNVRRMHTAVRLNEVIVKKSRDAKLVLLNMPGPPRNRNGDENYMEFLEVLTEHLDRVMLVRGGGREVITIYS
Assay: concentration-response of KCC2 transport modulators – cell-based, HEK293 KCC2, FluoZin-2 fluorescence, dose response (AID 1736)

SMILES | EC50 | EC50 (inactive by the depositor's call)
Cc1nc(SCc2ccc(F)cc2)c([N+](=O)[O-])[nH]1 [SMR000271028] | 878 µM | –
CCN(CC)S(=O)(=O)c1ccc(NC(=O)CSc2ncnc3ccccc23)cc1 [MLS000393282] | 5.08 µM | –
Cc1ccc(Cn2c(SCC(=O)Nc3cc(C)on3)nc3ccccc3c2=O)cc1 [2-[[4-keto-3-(4-methylbenzyl)quinazolin-2-yl]thio]-N-(5-methylisoxazol-3-yl)acetamide] | 82 µM | –
CN1C(=CC(=O)C2CCC2)Sc2ccccc21 [(2Z)-1-cyclobutyl-2-(3-methyl-1,3-benzothiazol-2-ylidene)ethanone] | – | 170 µM
O=[N+]([O-])c1ccccc1C=C[CH+][N-]n1c(-c2ccc(Cl)cc2)n[nH]c1=S [MLS000555506] | 14.1 µM | –
O=C(CNC(=O)/C(=C/c1ccccc1)NC(=O)c1ccc(Br)cc1)OCc1ccccc1 [(phenylmethyl) 2-[[(Z)-2-[(4-bromophenyl)carbonylamino]-3-phenyl-prop-2-enoyl]amino]ethanoate] | 0.678 µM | –
O=C(Cn1nc2ccccc2n1)NN=Cc1cc(Cl)cc([N+](=O)[O-])c1O [2-(2H-1,2,3-benzotriazol-2-yl)-N'-{5-chloro-2-hydroxy-3-nitrobenzylidene}acetohydrazide] | 28.4 µM | –
CCC(CC)NC(=O)CSc1nnc(-c2c[nH]c3ccccc23)o1 [MLS001017505] | 334 µM | –
CNc1ccc(/C=C(\CCC(=O)O)c2nc3ccccc3s2)cc1[N+](=O)[O-] [MLS000394200] | 7.48 µM | –
COc1cc(C(=S)N2CCOCC2)ccc1OC(=O)Cc1ccc(F)cc1 [(2-methoxy-4-morpholin-4-ylcarbothioyl-phenyl) 2-(4-fluorophenyl)ethanoate] | 137 µM | –
Sc1nnc(CNc2cccc(Cl)c2)o1 [5-[(3-chloroanilino)methyl]-3H-1,3,4-oxadiazole-2-thione] | 1.49 µM | –
Cc1ccc(Cn2nnc3c(=O)[nH]c(C4CCN(S(=O)(=O)c5ccc(F)cc5)CC4)nc32)cc1 [5-[1-(4-fluorophenyl)sulfonylpiperidin-4-yl]-3-[(4-methylphenyl)methyl]-2H-triazolo[4,5-d]pyrimidin-7-one] | 11.1 µM | –
COc1cccc(Nc2nnc(S)s2)c1 [5-(3-methoxyanilino)-3H-1,3,4-thiadiazole-2-thione] | 2.8 µM | –
O=C(NCc1cccnc1)c1ccc(COc2ccccc2Br)o1 [5-[(2-bromanylphenoxy)methyl]-N-(pyridin-3-ylmethyl)furan-2-carboxamide] | 9.14 µM | –
CCOc1ccc(C(CC(=O)O)NC(=O)C(Sc2ccccc2)c2ccccc2)cc1 (stereo unspecified) [3-(4-ethoxyphenyl)-3-[(2-phenyl-2-phenylsulfanyl-ethanoyl)amino]propanoic acid] | 13.6 µM | –
O=C(NC(=S)Nc1nc(-c2cccc([N+](=O)[O-])c2)cs1)c1ccccc1Cl [2-chloranyl-N-[[4-(3-nitrophenyl)-1,3-thiazol-2-yl]carbamothioyl]benzamide] | 6.81 µM | –
CC1Cc2ccccc2N1C(=O)c1ccc(N2CCCC2)c([N+](=O)[O-])c1 (stereo unspecified) [(2-methyl-2,3-dihydroindol-1-yl)-(3-nitro-4-pyrrolidin-1-yl-phenyl)methanone] | 0.361 µM | –
CCOC(=O)c1c(C)[nH]c(N=Nc2ccccc2)c1C [(5Z)-2,4-dimethyl-5-(phenylhydrazinylidene)-3-pyrrolecarboxylic acid ethyl ester] | 6.54 µM | –
COc1ccc(S(=O)(=O)N2CCC(C(=O)N3CCc4ccccc4C3)CC2)cc1C [2-({1-[(4-methoxy-3-methylphenyl)sulfonyl]-4-piperidinyl}carbonyl)-1,2,3,4-tetrahydroisoquinoline] | 14.4 µM | –
Cc1cc([N+](=O)[O-])ccc1NCc1ccccc1 [2-methyl-4-nitro-N-(phenylmethyl)aniline] | 31.3 µM | –
CC(C)CCNC(=O)COC(=O)/C=C/c1ccc2ccccc2n1 [(E)-3-(2-quinolinyl)-2-propenoic acid [2-(3-methylbutylamino)-2-oxoethyl] ester] | 2.75 µM | –

Source: BindingDB's records for doi:10.7270/Q2Q52N1X (Vanderbilt Screening Center for GPCRs, Ion Channels and …, 2009)
